Reference: patent publication US20100324079A1, “Medicament for prophylaxis and treatment of Alzheimer disease” (priority 2006, published 2010)
“Also recorded” adds a separate entry of the source. Counter-ions that a name gives are not always drawn. Peptide text beside a SMILES is read from it. * marks the point of attachment. Cbz = O=C(OCc1ccccc1)*

Experiments:
p53 = p53 Western blot analysis in hydrogen peroxide treated SH-SY5Y cells; format: cell-based; settings: 0, 1, 3 mM hydrogen peroxide, after 24 hours
Description: (§1) Further, in order to study p53 level and a rate of cell survival in cell damage induced by hydrogen peroxide, p53 Western blot analysis and survival rate assay using Cell Titer-Blue Assay Kit (Promega) were performed. Hydrogen peroxide treatment was done by adding an appropriate amount (0 mM, 1 mM, and 3 mM) of hydrogen peroxide to normal culture medium for SH-SY5Y cells supplemented with 10% serum as described above. After 24 hours, the increased p53 level by addition of hydrogen peroxide was inhibited by addition of APO (FIG. 4A). A rate of cell survival was also recovered by addition of APO.

3×Tg mouse [1] = assay: Preventive effect to onset of AD, Morris water maze test in homozygous 3×Tg mice; format: in vivo; settings: weekly 5 mg/kg from 3 months old up till 6 months old, hydrochloride
Description: For investigating whether APO administration may prevent onset of AD, the effect of weekly administration of 5 mg/kg of APO before onset was studied. The recognition function and the pathological change in 3×Tg mice may widely vary from individual to individual and thus still much more data would be necessary for obtaining a definite conclusion.

3×Tg mouse [2] = assay: Immunostaining of brain slices of 3×Tg mice (4G8, AT8); format: in vivo
Description: In 3×Tg mouse, it is observed that defects in the recognition function and intracellularly accumulated amyloid β proteins are correlated to each other. For evaluating amyloid β proteins accumulated within neurons, 3×Tg mice used in Example 6 were sacrificed for pathological analysis. Immunostaining was done with an antibody specific to an amyloid β protein and an antibody specific to a phosphorylated tau protein, which is a major component of neurofibrillary tangle in the AD brain. After completion of Morris water maze test after APO injection, the mice were subjected to perfusion fixation with 4% paraformaldehyde. Then, the whole brain was taken out, fixed with 4% paraformaldehyde and was left to stand in 15% sucrose for 48 hours and in 30% sucrose for 48 hours at 4° C. A slice with 20 μm thickness cut from the forehead including the hippocampus was prepared. Immunostaining was performed with 4G8 (Signet Laboratories, 1:1000) for an anti-amyloid β protein antibody and AT8 (Innogenetics, 1:200) for an anti-phosphorylated tau protein antibody using mouse to mouse immunostaining kit (Zymed) for DAB staining.

[3] = system: intracellularly accumulated Aβ40; assay: Degradation of intracellularly accumulated Aβ40 in SH-SY5Y cells (immunoblot, confocal microscopy); format: cell-based; settings: for degradation of intracellularly accumulated Aβ40 after 30 minutes: reagent added 2 hours before Aβ40 accumulation, immunoblot with 4G8
Description: (§2) In order to investigate a compound that inhibits intracellular aggregation and accumulation of amyloid β proteins based on activation of intracellular proteasome, a system was constructed for assaying an activity to degrade intracellularly accumulated Aβ. Neuroblastoma cells (SH-SY5Y; ATCC) were used as culture cells and Aβ40 was artificially accumulated within the cells. […] If the activity to degrade Aβ40 was high, the activity to degrade Aβ42 was analogously thought to be high. For introducing amyloid β proteins within cells, hypertonicity influx method was used. Briefly, using Influx™ Pinocytic Cell-loading Reagent (Molecular Probe), SH-SY5Y cells (1×10^6 cells) were exposed to Aβ40 (about 200 μg; ANASPEC) with hypertonicity for 10 minutes/hypotonicity for 2 minutes so that Aβ40 peptides may be incorporated into cells via pinocytosis and spread pervasively in cytoplasm. After accumulation of Aβ40 within cells, degradation of Aβ with lapse of time was observed. […] These reagents were added to culture two hours before Aβ40 accumulation to investigate their activity.
(§3) Zero minute and thirty minutes after Aβ40 treatment, cells were collected and subjected to immunoblot. Immunoblot was performed as commonly known in the art wherein soluble proteins were extracted from cells with 2% SDS, run on Tris/Tricine gel SDS-PAGE, transblotted to PVDF membrane (Semi-dry method) and detected with an anti-Aβ antibody (4G8, Signet Pathology Systems). Quantitative evaluation was done by quantitatively evaluating the immune reaction of amyloid β proteins. Quantitative evaluation was performed by taking in the photos with Photoshop and measuring density of bands with NIH Image. […] Thus, it was considered that intracellularly accumulated Aβ40 were degraded by proteasome and that APO may enhance the degrading process.
Aβ40 was incorporated into cells via pinocytosis as in (1) above.

proteasome = assay: Proteasome activity in SH-SY5Y cells (20S Proteasome Assay Kit, Suc-LLVY-AMC); format: cell-based
Description: As described in Example 2(1) and (2), a change in the protease activity in SH-SY5Y cells by addition of APO was studied. Measurement of the protease activity was conducted by calculating a relative specific activity by measuring fluorescence generated from degradation of a specific substrate (Suc-LLVY-AMC) using 20S Proteasome Assay Kit (BostonBiochem). Comparison between two groups was done by Student t-test.

3×Tg mouse [4] = assay: Morris water maze test in heterozygous 3×Tg mice; format: in vivo
Description: 3×Tg mouse is a model mouse of Alzheimer disease (AD) developed by Oddo and LaFerla et al. at University of California, Irvine. It is a mouse having three potent causes of disease wherein a gene of an amyloid precursor protein (APP) with KM670/671NL mutation, which is a gene causative of Swedish familial AD, and a gene of a tau protein (Tau) with P301L mutation, which is one of genes causative of familial frontotemporal dementia (FTD), are incorporated into a knock-in mouse of presenilin-1 (PS1) gene with M146V mutation causative of familial AD. […] It is also reported that the memory function of 3×Tg mouse is recovered when amyloid β proteins accumulated within neurons are decreased but defects in memory relapse if amyloid β proteins become accumulated (Billings L M et al., Neuron 45: 675-688, 2005). Thus, 3×Tg mouse is a model mouse of disease highly suitable for investigating efficacy of a medicament which targets intracellularly accumulated amyloid β proteins.
For investigating efficacy of apomorphine (APO) hydrochloride administered in vivo, APO was subcutaneously injected to 3×Tg. APO was purchased from Sigma Co. To heterozygous 3×Tg (6 month old; 4 mice in each group) generated from crossbreeding of a normal mouse and a Tg mouse, each 5 mg/kg of saline or APO was subcutaneously injected weekly for 4 weeks. The animals underwent analysis by Morris water maze test to evaluate the capacity of space memory before injection and after completion of four injections.
For quantitatively evaluating the capacity of space memory relating to the memory function of the hippocampus, Morris water maze test was performed. An analytical instrument used was DV-Track Video Tracking System (Muromachi Kikai Co., Ltd.). For Morris water maze, a round-shaped pool with a diameter of 1 m is prepared and a transparent goal stand is set in an arbitrary position of the pool. The animals undergo swimming training repeatedly by starting at an arbitrary position for reaching the goal stand (FIG. 9, left panel). In case that the animals could not reach the goal stand within 60 seconds, the test is discontinued and the animals are put on the goal stand for them to memorize the position. This training is repeated four times a day for three consecutive days and as a consequence the animals come to memorize the position of the goal stand (FIG. 9, right panel). Forty eight hours after completion of learning with time for reaching the goal stand being 15 seconds or less, the animals were let to swim in the pool without the goal stand and three indexes for memory were: time lag (s) in reaching the position where the goal stand was originally placed, a frequency (n) of crossing the position as seeking for the goal stand, and residential time (%) within ¼ block of the position where the goal stand was originally placed (48-hour probe test).

[5] = system: intracellularly accumulated Aβ42; assay: Degradation of intracellularly accumulated Aβ42 in SH-SY5Y cells (immunoblot); format: cell-based
Description: as §2, §3
As described in Example 1(1) and (2), degradation of intracellularly accumulated Aβ was assayed for Aβ42 provided that cells were collected 0 minute and 90 minutes after Aβ42 treatment and subjected to immunoblot.

[6] = system: primary neurons from mouse fetus; assay: Protective effect in mouse primary neurons (cell survival, beta-tubulin immunostaining); format: cell-based
Description: Primary neurons were taken from the brain of fetal mouse of 15 days old, separated by treatment with 0.03% trypsin and cultured in Neurobasal-A+B27 serum-free medium (Gibco). After stabilization by culture for about a week, the reagents were added and a rate of cell survival was measured.
Further, the above mouse primary neurons were immunostained with an antibody to beta-tubulin, a cytoskeletal protein of the axon and a network of the neurite was observed (FIG. 8).

SH-SY5Y cells = assay: Cell death induced by hydrogen peroxide in SH-SY5Y cells (cell survival); format: cell-based; settings: for rate of cell survival: hydrogen peroxide
Description: A cell death inhibitory activity of apomorphine hydrochloride to cell death induced by hydrogen peroxide was studied. Hydrogen peroxide treatment was performed by adding an appropriate amount (0 mM, 1 mM, and 3 mM) of hydrogen peroxide to normal culture medium for SH-SY5Y cells supplemented with 10% serum and by investigating cell survival after 24 hours. The cells were fixed with methanol/acetone (50%/50%) for 10 minutes so that the conditions of surviving cells could easily be observed and then subjected to immunostaining with an anti-APP C-terminal antibody (Sigma-Aldrich) using Universal Kit (DAKO). As a result, cell death was induced by hydrogen peroxide (FIG. 3, upper panels). Then, the cells were treated with 10 μM APO together with 0 mM, 1 mM, and 3 mM of hydrogen peroxide.
as §1

In the case of `CN1CCc2cccc3c2[C@H]1Cc1ccc(O)c(O)c1-3` [APO, apomorphine hydrochloride], the “p53 level increased by hydrogen peroxide” value (p53) is reported as “inhibited”, the “capacity of memory acquisition in swimming training (time lag in reaching the goal stand)” value (3×Tg mouse [1]) is reported as “comparable to Non-Tg mice; also recorded: evidently superior to that of 3×Tg mice with no treatment; also recorded: comparable to non-transgenic mice” and the “fall-off of massive neurons” value (3×Tg mouse [2]; 3×Tg mice at the stage of 6-month, after administration) is reported as “not observed”. The “intraneuronal accumulation of amyloid β proteins (4G8 immunostaining)” value (3×Tg mouse [2]; cerebral cortex and hippocampus CA1 region, 3×Tg mice of Example 6, vs saline, hydrochloride) was “evidently inhibited”, the “intraneuronal accumulation of phosphorylated tau proteins (AT8 immunostaining)” value (3×Tg mouse [2]; cerebral cortex and hippocampus, 3×Tg mice of Example 6, vs saline, hydrochloride) was “the accumulation was inhibited” and the “change in intracellular Aβ40 with lapse of time” value ([3]; 10 μM APO added two hours before) was “degraded with lapse of time”. For the same compound, the “degradation of intracellularly accumulated Aβ40 after 30 minutes” value [3] was “degradation after 30 minutes was enhanced”, the “degradation of intracellularly accumulated Aβ40 inhibited by MG132, effect of adding APO” value ([3]; with MG132, 30 minutes, immunoblot) was “the degradation was recovered” and the “proteasome activity (relative specific activity)” value (proteasome; APO alone, hydrochloride) was “enhanced the proteasome activity; also recorded: increased”. For the same compound, the “decreased proteasome activity at addition of oxidative stress” value (proteasome; oxidative stress plus APO) was “recovered”, the “capacity of memory for the goal stand position (loci of swimming), 48-hour probe test” value (3×Tg mouse [4]; 3×Tg cases (2 mice) in which APO injection was efficacious, hydrochloride) was “the memory retention of the goal stand position was improved; also recorded: markedly improved” and the “capacity of learning after 3-day consecutive training (time for reaching the goal stand)” value (3×Tg mouse [4]; heterozygous 3×Tg, 6 month old, 5 mg/kg subcutaneous weekly for 4 weeks, n=4, hydrochloride, 5 mg/kg) was “a tendency of improvement in the capacity of memory and learning; also recorded: slightly higher capacity of learning after treatment”. The “frequency of crossing the goal stand, 48-hour probe test” value (3×Tg mouse [4]; heterozygous 3×Tg, 5 mg/kg s.c. weekly for 4 weeks, after vs before injection, p=0.03) was “increase in frequency of crossing the goal stand”, the “residential time (%) within ¼ block of the goal stand, 48-hour probe test” value (3×Tg mouse [4]; heterozygous 3×Tg, 5 mg/kg s.c. weekly for 4 weeks, after vs before injection, p=0.04) was “increase in residential time” and the “time lag in reaching the goal stand, 48-hour probe test” value (3×Tg mouse [4]; heterozygous 3×Tg, 5 mg/kg s.c. weekly for 4 weeks, after vs before injection, p=0.05) was “shortening of time lag in reaching the goal stand”. For the same compound, the “degradation of intracellularly accumulated Aβ42 after 90 minutes” value [5] was “degradation after 90 minutes was enhanced”, the “network of the neurite (beta-tubulin immunostaining)” value ([6]; mouse primary neurons) was “protection and maintenance of the network” and the “apoptosis inhibitory activity for oxidative stress (rate of cell survival)” value ([6]; primary neurons from fetal mouse of 15 days old) was “also seen in primary neurons from mouse fetus”. For the same compound, the “concentration at which the effect of APO was at the peak” value ([6]; primary neurons from mouse fetus, rate of cell survival, thereafter declined) was 10 µM, the “cell survival (number of surviving cells and morphological features)” value (SH-SY5Y cells; 10 μM APO with 0, 1, 3 mM hydrogen peroxide, 24 hours, immunostaining) was “evident enhancement of cell survival” and the “rate of cell survival” value (SH-SY5Y cells; 10 μM APO, Cell Titer-Blue, p<0.0001) was “extremely improved”. The “rate of cell survival” value (SH-SY5Y cells; 24 hours, Cell Titer-Blue Assay Kit) was “recovered”.

`CC(C)C[C@@H](C=O)NC(=O)[C@H](CC(C)C)NC(=O)[C@H](CC(C)C)NC(=O)OCc1ccccc1` [MG132] (Cbz-Leu-Leu-Leu-aldehyde) was tested, and the “degradation of intracellularly accumulated Aβ40 after 30 minutes” value [3] was “degradation was inhibited” and the “degradation of intracellularly accumulated Aβ42 after 90 minutes” value [5] was “degradation was inhibited”.

With “Aβ42: amyloid β protein of 42 residues; printed in b62 as the added agent, probably a misprint for APO” the “degradation of intracellularly accumulated Aβ42 inhibited by MG132, recovery” value ([5]; with MG132, 90 minutes) was “the degradation was recovered”.
